The values that follow come from US20190322676A1, “CERAMIDE GALACTOSYLTRANSFERASE INHIBITORS FOR THE TREATMENT OF DISEASE” (BioMarin Pharmaceutical Inc., priority 2016, published 2019).

In this test the target is T1, human CGT (ceramide galactosyltransferase), CHO/CGT lysate (Homo sapiens, UniProt Q16880).
T1 construct: Full-length human CGT cDNA was cloned into the BamH1/Xho1 site of pcDNA3.1 (+); expressed in transfected cells; host or cells: Chinese hamster ovary (CHO) cells; lysate prepared with M-PER
T1 sequence (Q16880 21-541): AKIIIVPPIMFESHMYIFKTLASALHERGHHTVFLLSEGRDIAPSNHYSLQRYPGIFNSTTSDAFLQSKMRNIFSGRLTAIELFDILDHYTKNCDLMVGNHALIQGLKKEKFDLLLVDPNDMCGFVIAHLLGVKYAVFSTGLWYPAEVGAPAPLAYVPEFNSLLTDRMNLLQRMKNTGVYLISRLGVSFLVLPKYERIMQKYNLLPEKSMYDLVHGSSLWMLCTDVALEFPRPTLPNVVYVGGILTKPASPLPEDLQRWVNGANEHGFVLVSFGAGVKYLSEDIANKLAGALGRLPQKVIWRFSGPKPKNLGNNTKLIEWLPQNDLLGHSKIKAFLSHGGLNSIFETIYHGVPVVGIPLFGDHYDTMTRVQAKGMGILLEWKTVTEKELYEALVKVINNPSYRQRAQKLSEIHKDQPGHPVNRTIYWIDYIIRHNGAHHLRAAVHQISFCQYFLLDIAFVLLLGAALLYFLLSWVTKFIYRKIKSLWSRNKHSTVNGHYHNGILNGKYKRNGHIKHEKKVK
In words: CGT enzyme assay, RapidFire/MS/MS readout with 0.01% Tween added (Table 1 ranges with two asterisks **). The conditions noted are these: CGT enzymatic assay; range with two asterisks (**): RapidFire/MS/MS method with 0.01% Tween added. The format is biochemical. In short, it runs like this: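 IC50s come from variable-slope dose-response fits of internal-standard-normalized C6-NBD-dihydro-galactosylceramide, measured by RapidFire/MS/MS (ESI negative). Reactions: 1 h, 37 °C, human CGT-expressing CHO lysate (4 μg), 0.001–50 μM compound, 10 μM NBD-dihydro-ceramide, 17.5 μM UDP-galactose, 0.5% DMSO, pH 7.2; 0.01% Tween 80 added for ** values.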

Structures can show the parent of a compound that is named as a salt.

The IC50 is the concentration at which inhibition is half-maximal. Read a high IC50 as lower potency. `NC1CC2CCC(C1)N2C(=O)[C@H](NC(=O)[C@H](O)c1ccc2cc(OC3CCCC3)ccc2c1)C(F)(F)c1ccc2cc(Br)ccc2c1` (stereo partly drawn) [Compound 158-4, (2R)—N-((2S)-3-(3-amino-8-azabicyclo[3.2.1]octan-8-yl)-1-(6-bromonaphthalen-2-yl)-1,1-difluoro-3-oxopropan-2-yl)-2-(6-(cyclopentyloxy)naphthalen-2-yl)-2-hydroxyacetamide trifluoroacetate]: the concentration for half-maximal inhibition (IC50) lay in the range of 30 to 100 µM.

As for `NC1CCN(C(=O)[C@@H](NC(=O)[C@H](O)c2ccc3cc(OC4CCCC4)ccc3c2)C(F)(F)c2ccc(-c3ccc(Cl)cc3)cc2)CC1` [Compound 159-1, (R)—N—((R)-3-(4-aminopiperidin-1-yl)-1-(4′-chloro-[1,1′-biphenyl]-4-yl)-1,1-difluoro-3-oxopropan-2-yl)-2-(6-(cyclopentyloxy)naphthalen-2-yl)-2-hydroxyacetamide trifluoroacetate], the IC50 lay within 1 to 10 µM.

`NC1CCN(C(=O)[C@H](NC(=O)[C@@H](O)c2ccc3cc(OC4CCCC4)ccc3c2)C(F)(F)c2ccc(-c3ccc(Cl)cc3)cc2)CC1` [Compound 159-2, (S)—N—((S)-3-(4-aminopiperidin-1-yl)-1-(4′-chloro-[1,1′-biphenyl]-4-yl)-1,1-difluoro-3-oxopropan-2-yl)-2-(6-(cyclopentyloxy)naphthalen-2-yl)-2-hydroxyacetamide trifluoroacetate]: the IC50 lay in the range of 30 to 100 µM.

`NC1CCN(C(=O)[C@@H](NC(=O)[C@@H](O)c2ccc3cc(OC4CCCC4)ccc3c2)C(F)(F)c2ccc(-c3ccc(Cl)cc3)cc2)CC1` [Compound 159-3, (S)—N—((R)-3-(4-aminopiperidin-1-yl)-1-(4′-chloro-[1,1′-biphenyl]-4-yl)-1,1-difluoro-3-oxopropan-2-yl)-2-(6-(cyclopentyloxy)naphthalen-2-yl)-2-hydroxyacetamide trifluoroacetate]: the concentration for half-maximal inhibition (IC50) is 1 to 10 µM.

Molecule `NC1CCN(C(=O)[C@H](NC(=O)[C@H](O)c2ccc3cc(OC4CCCC4)ccc3c2)C(F)(F)c2ccc(-c3ccc(Cl)cc3)cc2)CC1` [Compound 159-4, (R)—N—((S)-3-(4-aminopiperidin-1-yl)-1-(4′-chloro-[1,1′-biphenyl]-4-yl)-1,1-difluoro-3-oxopropan-2-yl)-2-(6-(cyclopentyloxy)naphthalen-2-yl)-2-hydroxyacetamide trifluoroacetate] yielded a half-maximal inhibitory concentration (IC50) of 30 to 100 µM.

Turning to `NC1CC2CCC(C1)N2C(=O)[C@@H](NC(=O)C(=O)c1ccc2cc(OC3CCCC3)ccc2c1)C(F)(F)c1ccc2cc(Br)ccc2c1` (stereo partly drawn) [Compound 160-1, N-((2R)-3-(3-amino-8-azabicyclo[3.2.1]octan-8-yl)-1-(6-bromonaphthalen-2-yl)-1,1-difluoro-3-oxopropan-2-yl)-2-(6-(cyclopentyloxy)naphthalen-2-yl)-2-oxoacetamide trifluoroacetate], the half-maximal inhibitory concentration (IC50) was in the range of 10 to 30 µM.

Molecule `NC1CC2CCC(C1)N2C(=O)[C@H](NC(=O)C(=O)c1ccc2cc(OC3CCCC3)ccc2c1)C(F)(F)c1ccc2cc(Br)ccc2c1` (stereo partly drawn) [Compound 160-2, N-((2S)-3-(3-amino-8-azabicyclo[3.2.1]octan-8-yl)-1-(6-bromonaphthalen-2-yl)-1,1-difluoro-3-oxopropan-2-yl)-2-(6-(cyclopentyloxy)naphthalen-2-yl)-2-oxoacetamide trifluoroacetate] returned a 50% inhibitory concentration (IC50) of 30 to 100 µM.

`N[C@@H]1CCN(C(=O)[C@@H](NS(=O)(=O)c2ccc3cc(OC4CCCC4)ccc3c2)C(F)(F)c2ccc(-c3ccc(Cl)cc3)cc2)CC1(F)F` [Compound 161-1, N—((R)-3-((R)-4-amino-3,3-difluoropiperidin-1-yl)-1-(4′-chloro-[1,1′-biphenyl]-4-yl)-1,1-difluoro-3-oxopropan-2-yl)-6-(cyclopentyloxy)naphthalene-2-sulfonamide trifluoroacetate] yielded an IC50 of 1 to 10 µM.

For `N[C@H]1CCN(C(=O)[C@H](NS(=O)(=O)c2ccc3cc(OC4CCCC4)ccc3c2)C(F)(F)c2ccc(-c3ccc(Cl)cc3)cc2)CC1(F)F` [Compound 161-2, N—((S)-3-((S)-4-amino-3,3-difluoropiperidin-1-yl)-1-(4′-chloro-[1,1′-biphenyl]-4-yl)-1,1-difluoro-3-oxopropan-2-yl)-6-(cyclopentyloxy) naphthalene-2-sulfonamide trifluoroacetate], the half-maximal inhibitory concentration (IC50) was 30 to 100 µM.

On to `N[C@H]1CCN(C(=O)[C@@H](NS(=O)(=O)c2ccc3cc(OC4CCCC4)ccc3c2)C(F)(F)c2ccc(-c3ccc(Cl)cc3)cc2)CC1(F)F` [Compound 161-3, N—((R)-3-((S)-4-amino-3,3-difluoropiperidin-1-yl)-1-(4′-chloro-[1,1′-biphenyl]-4-yl)-1,1-difluoro-3-oxopropan-2-yl)-6-(cyclopentyloxy)naphthalene-2-sulfonamide trifluoroacetate], for which the 50% inhibitory concentration (IC50) is < 1 µM.

The molecule `N[C@@H]1CCN(C(=O)[C@H](NS(=O)(=O)c2ccc3cc(OC4CCCC4)ccc3c2)C(F)(F)c2ccc(-c3ccc(Cl)cc3)cc2)CC1(F)F` [Compound 161-4, N—((S)-3-((R)-4-amino-3,3-difluoropiperidin-1-yl)-1-(4′-chloro-[1,1′-biphenyl]-4-yl)-1,1-difluoro-3-oxopropan-2-yl)-6-(cyclopentyloxy)naphthalene-2-sulfonamide trifluoroacetate] gave a half-maximal inhibitory concentration (IC50) of 1 to 10 µM.

As for `NC1CCN(C(=O)[C@@H](NS(=O)(=O)c2ccc3cc(OC4CCCC4)ccc3c2)C(F)(F)c2ccc(-c3ccc(Cl)cc3)cn2)CC1` [Compound 162-1, (R)—N-(3-(4-aminopiperidin-1-yl)-1-(5-(4-chlorophenyl)pyridin-2-yl)-1,1-difluoro-3-oxopropan-2-yl)-6-(cyclopentyloxy)naphthalene-2-sulfonamide], the half-maximal inhibitory concentration (IC50) lay in the range of 1 to 10 µM.

For the molecule `NC1CCN(C(=O)[C@H](NS(=O)(=O)c2ccc3cc(OC4CCCC4)ccc3c2)C(F)(F)c2ccc(-c3ccc(Cl)cc3)cn2)CC1` [Compound 162-2, (S)—N-(3-(4-aminopiperidin-1-yl)-1-(5-(4-chlorophenyl)pyridin-2-yl)-1,1-difluoro-3-oxopropan-2-yl)-6-(cyclopentyloxy)naphthalene-2-sulfonamide], the IC50 lay within 10 to 30 µM.

In the case of `NC1CCN(C(=O)[C@@H](NS(=O)(=O)c2ccc(OCC3CCCCC3)cc2)C(F)(F)c2ccc(-c3ccc(Cl)cc3)cn2)CC1` [Compound 163-1, (R)—N-(3-(4-aminopiperidin-1-yl)-1-(5-(4-chlorophenyl)pyridin-2-yl)-1,1-difluoro-3-oxopropan-2-yl)-4-(cyclohexylmethoxy)benzenesulfonamide], the IC50 was in the range of 1 to 10 µM.

As for `NC1CCN(C(=O)[C@H](NS(=O)(=O)c2ccc(OCC3CCCCC3)cc2)C(F)(F)c2ccc(-c3ccc(Cl)cc3)cn2)CC1` [Compound 163-2, (S)—N-(3-(4-aminopiperidin-1-yl)-1-(5-(4-chlorophenyl)pyridin-2-yl)-1,1-difluoro-3-oxopropan-2-yl)-4-(cyclohexylmethoxy) benzenesulfonamide], the IC50 lay within 30 to 100 µM.

For the molecule `NC1CCN(C(=O)[C@@H](NS(=O)(=O)c2cc3ccc(OC4CCCC4)cc3s2)C(F)(F)c2ccc(-c3ccc(Cl)cc3)cc2)CC1` [Compound 164-1, (R)—N-(3-(4-aminopiperidin-1-yl)-1-(4′-chloro-[1,1′-biphenyl]-4-yl)-1,1-difluoro-3-oxopropan-2-yl)-6-(cyclopentyloxy)benzo[b]thiophene-2-sulfonamide], the IC50 was in the range of 1 to 10 µM.

In the case of `NC1CCN(C(=O)[C@H](NS(=O)(=O)c2cc3ccc(OC4CCCC4)cc3s2)C(F)(F)c2ccc(-c3ccc(Cl)cc3)cc2)CC1` [Compound 164-2, (S)—N-(3-(4-aminopiperidin-1-yl)-1-(4′-chloro-[1,1′-biphenyl]-4-yl)-1,1-difluoro-3-oxopropan-2-yl)-6-(cyclopentyloxy)benzo[b]thiophene-2-sulfonamide], the half-maximal inhibitory concentration (IC50) lay within 1 to 10 µM.

Turning to `NC1CCN(C(=O)[C@H](NS(=O)(=O)c2ccc(COC3CCCCC3)s2)C(F)(F)c2ccc(-c3ccc(Cl)cc3)cc2)CC1` [Compound 165-1, (S)—N-(3-(4-aminopiperidin-1-yl)-1-(4′-chloro-[1,1′-biphenyl]-4-yl)-1,1-difluoro-3-oxopropan-2-yl)-5-((cyclohexyloxy)methyl)thiophene-2-sulfonamide trifluoroacetate], the half-inhibitory concentration (IC50) was 30 to 100 µM.

In the case of `NC1CCN(C(=O)[C@@H](NS(=O)(=O)c2ccc(COC3CCCCC3)s2)C(F)(F)c2ccc(-c3ccc(Cl)cc3)cc2)CC1` [Compound 165-2, (R)—N-(3-(4-aminopiperidin-1-yl)-1-(4′-chloro-[1,1′-biphenyl]-4-yl)-1,1-difluoro-3-oxopropan-2-yl)-5-((cyclohexyloxy)methyl)thiophene-2-sulfonamide trifluoroacetate], the half-inhibitory concentration (IC50) is 30 to 100 µM.

In the case of `C=C(c1ccc(C(F)(F)[C@H](NS(=O)(=O)c2ccc3cc(OC4CCCC4)ccc3c2)C(=O)N2CCC(N)CC2)cc1)C(F)(F)F` [Compound 166-1, (R)—N-(3-(4-aminopiperidin-1-yl)-1,1-difluoro-3-oxo-1-(4-(3,3,3-trifluoroprop-1-en-2-yl)phenyl)propan-2-yl)-6-(cyclopentyloxy)naphthalene-2-sulfonamide], the IC50 lay within 1 to 10 µM.
